Results from article PMC10107140, “Preparative‐Scale Biocatalytic Oxygenation of N‐Heterocycles with a Lyophilized Peroxygenase Catalyst” (Angewandte Chemie (International Ed. in English), 2022).

Tests used:
Format in all cases: biochemical
[1] = molecular target: T1, rAaeUPO-PaDa-I-H (unspecific peroxygenase) (Cyclocybe aegerita, UniProt B9W4V6, F354L/I291V/L110F/V100A/V118I); experiment: competition-based 5-nitro-1,3-benzodioxole peroxygenase assay; also converted to (R)-alcohol […]
T1 construct: gene APO1; recombinant, expressed in Pichia pastoris, C-terminal histidine tag
T1 sequence (B9W4V6 44-371 V100A/L110F/V118I/I291V/F354L): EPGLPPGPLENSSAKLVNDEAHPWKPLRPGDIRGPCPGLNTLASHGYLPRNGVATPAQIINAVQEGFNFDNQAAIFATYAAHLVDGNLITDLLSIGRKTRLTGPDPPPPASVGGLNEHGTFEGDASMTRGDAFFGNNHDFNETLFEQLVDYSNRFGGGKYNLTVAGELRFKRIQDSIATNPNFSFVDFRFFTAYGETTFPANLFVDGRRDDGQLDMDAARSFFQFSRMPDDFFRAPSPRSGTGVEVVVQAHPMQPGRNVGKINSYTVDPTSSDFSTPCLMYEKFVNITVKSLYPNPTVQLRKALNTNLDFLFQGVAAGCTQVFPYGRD

[2] = molecular target: T1, rAaeUPO-PaDa-I-H (unspecific peroxygenase); experiment: competition-based 5-nitro-1,3-benzodioxole peroxygenase assay
[3] = molecular target: T1, rAaeUPO-PaDa-I-H (unspecific peroxygenase); experiment: competition-based 5-nitro-1,3-benzodioxole peroxygenase assay; also converted to (R)-alcohol […]; remark: listed apart in the source

Compound: CCc1cccnc1 [compound 10, 3-ethylpyridine]
- IC50 [1]: 700 µM

Compound: CCc1ccncc1 [compound 6, 4-ethylpyridine]
- IC50 [2]: 16 µM

Compound: CCc1ccccn1 [compound 14, 2-ethylpyridine]
- IC50 [3]: 29.5 mM
